Results: US8592431B2, “Fused ring compound and use thereof” (Takeda Pharmaceutical Company Limited, priority 2009, dated 2013)

biological target: human PPARγ (Homo sapiens (Human), UniProt P37231); assay: PPARγ agonistic activity: luciferase reporter assay in PPARγ:RXRα:4ERPP/CHO-K1 cells; assay type: cell-based; details: CHO-K1, test compound 10^−6 M; control compound X (1 μM) taken as 100%
Source text: Evaluation of PPARγ Agonistic Activity
(5) Introduction of Human PPARγ- and RXRα-Expression Plasmid and Reporter Plasmid into Cho-K1 Cell as Well as Establishment of Expressed Cell
A CHO-K1 cell cultured in a 150 cm^2 cell culture flask [manufactured by Corning Costar Corporation, USA] comprising Ham's F12 medium [manufactured by INVITROGEN, USA] supplemented with 10% fetal bovine serum [manufactured by INVITROGEN, USA] was taken off by treating with 0.5 g/L trypsin-0.2 g/L EDTA (ethylenediamine tetraacetate) [manufactured by Life Technologies, Inc., USA], and then the cell was washed with PBS (Phosphate-buffered saline) [manufactured by INVITROGEN, USA], centrifuged (1000 rpm, 5 minutes) and suspended in PBS. Subsequently, DNA was introduced into the cell under the conditions shown below using GENE PULSER [manufactured by Bio-Rad Laboratories, USA].
Namely, to a cuvette having a 0.4 cm gap were added 8×10^6 cells and 10 μg of plasmid pVgRXR2-hPPARγ obtained in the above-mentioned (4) and 10 μg of reporter plasmid pGL3-4ERPP-TK neo obtained in the above-mentioned (3), which was subjected to electroporation at the voltage of 0.25 kV under the capacitance of 960 μF. Subsequently, the cell was transferred into a F12 medium comprising 10% fetal bovine serum and cultured for 24 hours, and then the cell was taken off again and centrifuged. Then, the pellet was suspended in Ham's F12 medium comprising 10% fetal bovine serum supplemented with 500 μg/ml of Geneticin [manufactured by INVITROGEN, USA] and 250 μg/ml of Zeocin [manufactured by INVITROGEN, USA]. The obtained suspension was diluted to the density of 10^4 cells/ml and inoculated in a 96-well plate [manufactured by Corning Costar Corporation, USA], which was cultured in a CO2 gas incubator at 37° C., whereby obtaining a Geneticin- and Zeocin-resistant transformant.
Subsequently, after the transformed cell line thus obtained was cultured in a 24-well plate [manufactured by Corning Costar Corporation, USA], a cell line in which expression of the luciferase was induced, i.e., PPARγ:RXRα:4ERPP/CHO-K1 cell was selected by the addition of 10 μM pioglitazone hydrochloride.
(6) Evaluation of PPARγ Agonistic Activity
PPARγ:RXRα:4ERPP/CHO-K1 cells obtained in the above-mentioned (5) were cultured in F12 medium [manufactured by INVITROGEN, USA] containing 10% fetal bovine serum [manufactured by MOREGATE, Australia], seeded in a 96 well half-area white plate [manufactured by Corning Coster Corporation, USA] at 5×10^3 cells/well, and cultured in a CO2 incubator at 37° C. overnight.
Then, the medium was removed from the 96 well half-area white plate, hamF12 medium containing 0.1% fatty acid-free bovine serum albumin (BSA) (45 μl) and a test compound (5 μl) were added, and the mixture was cultured in the CO2 incubator at 37° C. for 1 day. After removing the medium, Picagene 7.5 [manufactured by Dai Nippon Inki, Japan] (20 μl) diluted 2-fold with HBSS (HANKS' BALANCED SALT SOLUTION) [manufactured by BIO […], USA] was added, and the mixture was stirred. Using 1420 ARVO Multilabel Counter [manufactured by PerkinElmer, USA], luciferase activity was measured.
The percentage (%) was calculated from the luciferase activity of the test compound when the luciferase activity of the control compound (compound X: 5-[3-(4-{[2-(2-furyl)-5-methyl-1,3-oxazol-4-yl]methoxy}-3-methoxyphenyl)propyl]-1,3-oxazolidine-2,4-dione) (1 μM) was taken as 100% and the luciferase activity of the test compound non-administration group was taken as 0%.

Chain of human PPARγ (P37231 29-505): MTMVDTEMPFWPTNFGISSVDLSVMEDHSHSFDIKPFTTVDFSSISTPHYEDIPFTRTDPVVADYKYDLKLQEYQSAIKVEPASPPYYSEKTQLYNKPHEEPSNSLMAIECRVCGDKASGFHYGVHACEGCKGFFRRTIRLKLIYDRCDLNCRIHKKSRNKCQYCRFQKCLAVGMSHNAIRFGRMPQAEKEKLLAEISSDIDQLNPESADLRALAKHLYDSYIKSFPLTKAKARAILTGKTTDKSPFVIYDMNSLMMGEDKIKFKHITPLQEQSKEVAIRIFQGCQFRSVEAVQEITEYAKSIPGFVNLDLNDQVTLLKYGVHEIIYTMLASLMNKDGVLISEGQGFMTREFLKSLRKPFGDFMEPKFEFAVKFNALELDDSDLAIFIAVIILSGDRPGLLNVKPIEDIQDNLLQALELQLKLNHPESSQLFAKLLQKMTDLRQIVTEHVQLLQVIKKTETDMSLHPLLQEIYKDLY
Chain of human PPARγ (P19793 whole entry partner): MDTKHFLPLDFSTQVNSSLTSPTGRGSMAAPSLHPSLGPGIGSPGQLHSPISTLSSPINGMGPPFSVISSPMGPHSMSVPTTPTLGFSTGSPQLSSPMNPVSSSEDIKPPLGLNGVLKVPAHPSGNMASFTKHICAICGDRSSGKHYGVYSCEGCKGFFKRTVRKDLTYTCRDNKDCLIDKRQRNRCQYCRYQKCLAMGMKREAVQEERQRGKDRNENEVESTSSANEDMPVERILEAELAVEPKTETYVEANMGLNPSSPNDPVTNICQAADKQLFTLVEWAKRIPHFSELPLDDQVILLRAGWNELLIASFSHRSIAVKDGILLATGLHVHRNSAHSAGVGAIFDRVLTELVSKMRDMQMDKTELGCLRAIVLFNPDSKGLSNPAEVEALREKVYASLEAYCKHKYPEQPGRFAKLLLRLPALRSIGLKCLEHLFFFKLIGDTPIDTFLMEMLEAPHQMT

activation at 1 µM [%] | Compound
17 | CCCc1c(Cc2ccc(-c3ccccc3-c3noc(=O)[nH]3)cc2)c(=O)n([C@H]2CC[C@H](OC(C)C(C)(C)O)CC2)c2ncnn12 (single isomer, unassigned) [Example 318, 4-[trans-4-(2-hydroxy-1,2-dimethylpropoxy)cyclohexyl]-6-{[2′-(5-oxo-4,5-dihydro-1,2,4-oxadiazol-3-yl)biphenyl-4-yl]methyl}-7-propyl[1,2,4]triazolo[1,5-a]pyrimidin-5(4H)-one (Retention Time: Short)]
17 | CCCc1c(Cc2ccc(-c3ccccc3-c3noc(=O)[nH]3)cc2F)c(=O)n([C@H]2CC[C@H](OC(C)C(C)(C)O)CC2)c2ncnn12 (single isomer, unassigned; (+)) [Example 247, (+)-6-{[3-fluoro-2′-(5-oxo-4,5-dihydro-1,2,4-oxadiazol-3-yl)biphenyl-4-yl]methyl}-4-[trans-4-(2-hydroxy-1,2-dimethylpropoxy)cyclohexyl]-7-propyl[1,2,4]triazolo[1,5-a]pyrimidin-5(4H)-one]

same assay, conditions: test compound 10^−6 M; control compound X (1 μM) taken as 100%

PPARγ agonistic activity (activation % (10^−6 M)) [%] | Compound
19 | CCCc1c(Cc2ccc(-c3ccccc3-c3noc(=O)[nH]3)cc2F)c(=O)n([C@H]2CC[C@H](OC(C)C(C)(C)O)CC2)c2ncnn12 (single isomer, unassigned) [Example 248, 6-{[3-fluoro-2′-(5-oxo-4,5-dihydro-1,2,4-oxadiazol-3-yl)biphenyl-4-yl]methyl}-4-[trans-4-(2-hydroxy-1,2-dimethylpropoxy)cyclohexyl]-7-propyl[1,2,4]triazolo[1,5-a]pyrimidin-5(4H)-one]
16 | CCCc1c(Cc2ccc(-c3ccccc3-c3noc(=O)[nH]3)cc2)c(=O)n([C@H]2CC[C@H](OC(C)C(C)(C)O)CC2)c2ncnn12 (single isomer, unassigned) [Example 319, 4-[trans-4-(2-hydroxy-1,2-dimethylpropoxy)cyclohexyl]-6-{[2′-(5-oxo-4,5-dihydro-1,2,4-oxadiazol-3-yl)biphenyl-4-yl]methyl}-7-propyl[1,2,4]triazolo[1,5-a]pyrimidin-5(4H)-one (Retention Time: Long)]
19 | CCCc1c(Cc2ccc(-c3ccccc3-c3noc(=O)[nH]3)cc2)c(=O)n(C2CCC(OCC(C)O)CC2)c2ccnn12 (single isomer, unassigned) [Example 441, 4-[trans-4-(2-hydroxypropoxy)cyclohexyl]-6-{[2′-(5-oxo-4,5-dihydro-1,2,4-oxadiazol-3-yl)biphenyl-4-yl]methyl}-7-propylpyrazolo[1,5-a]pyrimidin-5(4H)-one (Optically Active Form, Retention Time: Long)]
26 | CCCCc1c(Cc2ccc(-c3ccccc3-c3noc(=O)[nH]3)cc2)c(=O)n(C2CCOC(C)C2)c2ncnn12 (stereo not drawn) [Example 160, 7-butyl-4-(2-methyltetrahydro-2H-pyran-4-yl)-6-{[2′-(5-oxo-4,5-dihydro-1,2,4-oxadiazol-3-yl)biphenyl-4-yl]methyl}[1,2,4]triazolo[1,5-a]pyrimidin-5(4H)-one]
47 | CCCCc1c(Cc2ccc(-c3ccccc3-c3noc(=O)[nH]3)cc2)c(=O)n(C2CCOC(C)C2)c2ncnn12 (stereo not drawn) [Example 161, 7-butyl-4-(2-methyltetrahydro-2H-pyran-4-yl)-6-{[2′-(5-oxo-4,5-dihydro-1,2,4-oxadiazol-3-yl)biphenyl-4-yl]methyl}[1,2,4]triazolo[1,5-a]pyrimidin-5(4H)-one]
16 | CCCc1c(Cc2ccc(-c3ccccc3-c3noc(=O)[nH]3)cc2)c(=O)n([C@H]2CC[C@H](OC(C)C(C)(C)O)CC2)c2ncnn12 (stereo partly drawn) [Example 300, 4-[trans-4-(2-hydroxy-1,2-dimethylpropoxy)cyclohexyl]-6-{[2′-(5-oxo-4,5-dihydro-1,2,4-oxadiazol-3-yl)biphenyl-4-yl]methyl}-7-propyl[1,2,4]triazolo[1,5-a]pyrimidin-5(4H)-one]

biological target: human AT1 receptor (Homo sapiens (Human), UniProt P30556); assay: AT1 receptor antagonistic activity: [125I]-angiotensin II binding assay with AT1 membrane; details: 22.5 pM [125I]-angiotensin II, human AT1 receptor-expressing CHO-K1 membrane, 1 hr room temperature
Method: Evaluation of AT1 Receptor Antagonistic Activity
(1) Preparation of Human AT1 Receptor-Expressing CHO-K1 Cellular Membrane Fraction
CHO-K1 cell (RIKEN, Japan) capable of stable expression of human AT1 receptor was cultured, recovered, suspended in homogenize buffer (10 mM NaHCO3 (pH 7.4), 5 mM EDTA, 1× Complete EDTA free) [manufactured by Roche, Switzerland], and homogenized. The homogenate was centrifuged at low-speed (900×g, 10 min, 4° C.), and the supernatant was recovered and ultracentrifuged (90,000×g, 1 hr, 4° C.). The supernatant was discarded, and the pellets were resuspended in suspension buffer (50 mM Tris (pH 7.4), 1 mM EDTA, 1× Complete EDTA free).
(2) Evaluation of AT1 Receptor Antagonistic Activity
(9 μg) in the presence of AT1 membrane and test compound in 100 μL (total reaction volume) of reaction buffer (50 mM Tris (pH 7.4), 10 mM MgCl2 supplemented or not supplemented with 0.3 mg/mL fatty acid-free bovine serum albumin [manufactured by Wako Pure Chemical Industries, Ltd., Japan]). The reaction mixture was incubated in 96 well polypropylene plate for 1 hr at room temperature, and the reaction was quenched by rapid filtration (96 well cell harvester) through a GF/C filter treated with wash buffer (50 mM Tris (pH 7.4)). Subsequently, the filter was washed 5 times with 0.3 mL of ice-cooled wash buffer. […] Total binding was measured in the presence of 1% DMSO and nonspecific binding was measured in the presence of 1 μM Candesartan.

Chain of human AT1 receptor (P30556 whole entry): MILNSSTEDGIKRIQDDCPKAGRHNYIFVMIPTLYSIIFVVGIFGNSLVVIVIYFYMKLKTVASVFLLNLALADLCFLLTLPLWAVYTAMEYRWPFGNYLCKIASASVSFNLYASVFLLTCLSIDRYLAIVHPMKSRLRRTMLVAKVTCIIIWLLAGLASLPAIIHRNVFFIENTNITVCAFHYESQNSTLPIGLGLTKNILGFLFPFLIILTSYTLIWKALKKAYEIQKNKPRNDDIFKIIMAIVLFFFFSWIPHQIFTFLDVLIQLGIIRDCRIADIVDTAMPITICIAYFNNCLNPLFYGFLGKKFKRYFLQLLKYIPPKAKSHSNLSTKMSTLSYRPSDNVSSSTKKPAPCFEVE

IC50 [nM] | Compound
2.2 | CCCc1c(Cc2ccc(-c3ccccc3-c3noc(=O)[nH]3)cc2F)c(=O)n([C@H]2CC[C@H](OC(C)C(C)(C)O)CC2)c2ncnn12 (single isomer, unassigned) [Example 248, 6-{[3-fluoro-2′-(5-oxo-4,5-dihydro-1,2,4-oxadiazol-3-yl)biphenyl-4-yl]methyl}-4-[trans-4-(2-hydroxy-1,2-dimethylpropoxy)cyclohexyl]-7-propyl[1,2,4]triazolo[1,5-a]pyrimidin-5(4H)-one]
1.8 | CCCc1c(Cc2ccc(-c3ccccc3-c3nc(=O)o[nH]3)cc2)c(=O)n(C2CCC(OCC(C)O)CC2)c2ccnn12 (single isomer, unassigned) [Example 440, 4-[trans-4-(2-hydroxypropoxy)cyclohexyl]-6-{[2′-(5-oxo-4,5-dihydro-1,2,4-oxadiazol-3-yl)biphenyl-4-yl]methyl}-7-propylpyrazolo[1,5-a]pyrimidin-5(4H)-one (Optically Active Form, Retention Time: Short)]
1.6 | CCCc1c(Cc2ccc(-c3ccccc3-c3noc(=O)[nH]3)cc2)c(=O)n(C2CCC(OCC(C)O)CC2)c2ccnn12 (single isomer, unassigned) [Example 441, 4-[trans-4-(2-hydroxypropoxy)cyclohexyl]-6-{[2′-(5-oxo-4,5-dihydro-1,2,4-oxadiazol-3-yl)biphenyl-4-yl]methyl}-7-propylpyrazolo[1,5-a]pyrimidin-5(4H)-one (Optically Active Form, Retention Time: Long)]

tested on: Male SHRs; assay: Antihypertensive effect: mean blood pressure in SHRs after oral administration; assay type: in vivo, rat; details: SHR, dose 3 mg/kg, during 24 hours after administration
Method: Male SHRs (28-40 weeks old, Japan SLC, Inc., Japan) were anesthetized with sodium pentobarbital (50 mg/kg, i.p.). The left femoral artery was cannulated with a polyethylene catheter filled with saline comprising heparin (200 U/mL). The catheter was exteriorized at the back of the neck and each SHR was individually housed in a cage and left two or four days to recover. The mean blood pressure (MBP) was obtained from the systemic blood pressure which was monitored from the femoral artery using a pressure transducer connected to a polygraph system (Nihon Kohden Corporation). The heart rate was measured from the blood pressure pulse intervals. The rats which had MBP over 150 mmHg were used for the experiment. When the blood pressure had stabilized, vehicle (0.5 w/v % methylcellulose) or compounds were orally administered. All compounds were suspended in 0.5 w/v % methylcellulose and orally administered at a volume of 2 mL/kg. The MBP was measured during 24 hours after the administration.

Compound | Maximum MBP reduction (mmHg)
CCCc1c(Cc2ccc(-c3ccccc3C3=NOC(O)N3)cc2F)c(=O)n(C2CCC(OC(C)C(C)(C)O)CC2)c2ncnn12.[K+] (single isomer, unassigned; (-)) [Example 459, (−)-6-{[3-fluoro-2′-(5-oxo-4,5-dihydro-1,2,4-oxadiazol-3-yl)biphenyl-4-yl]methyl}-4-[trans-4-(2-hydroxy-1,2-dimethylpropoxy)cyclohexyl]-7-propyl[1,2,4]triazolo[1,5-a]pyrimidin-5(4H)-one potassium salt (Retention Time: Long)] | 64
